From ChEMBL document CHEMBL1201862, “PubChem BioAssay data set” (2004)
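How tested: cells in 96-well plates exposed to compound for 48 hours at five concentrations. GI50 marks 50% less growth.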 Activity calls are given as the source filed them. Cut-off read from the data, not from the text of the source: active = GI50 up to about 1.1 µM and inactive = higher.

Key:
Assay in all cases: NCI anticancer screen, dose series, 48 h
EKVX = test system: EKVX
NCI/ADR-RES = test system: NCI/ADR-RES
K562 = test system: K562
MDA-MB-435 = test system: MDA-MB-435
OVCAR-5 = test system: OVCAR-5
MDA-N = test system: MDA-N
SK-MEL-5 = test system: SK-MEL-5
ACHN = test system: ACHN
RXF 393 = test system: RXF 393
HT-29 = test system: HT-29
TK-10 = test system: TK-10
Hs-578T = test system: Hs-578T
UACC-62 = test system: UACC-62
SN12C = test system: SN12C
SW-620 = test system: SW-620
CCRF-CEM = test system: CCRF-CEM
HOP-92 = test system: HOP-92
U-251 = test system: U-251
UACC-257 = test system: UACC-257
BT-549 = test system: BT-549

Measured: GI50

C1C2CC3CC1CC(c1nn4c(C56CC7CC(CC(C7)C5)C6)nnc4s1)(C2)C3
inactive: EKVX > 100 µM | NCI/ADR-RES > 100 µM | K562 > 100 µM | MDA-MB-435 > 100 µM | OVCAR-5 > 100 µM | MDA-N > 100 µM | SK-MEL-5 > 100 µM | ACHN > 100 µM | RXF 393 > 100 µM | HT-29 > 100 µM | TK-10 > 100 µM | Hs-578T > 100 µM | UACC-62 > 100 µM | SN12C > 100 µM | SW-620 > 100 µM | CCRF-CEM > 100 µM | HOP-92 > 100 µM | U-251 > 100 µM

Cc1ccc2nc3ccccc3c(C3C4C(=O)N(c5ccc(Br)cc5Cl)C(=O)C4ON3C(C(N)=O)c3ccccc3)c2c1 (configuration not stated)
inactive: EKVX 6.56 µM | K562 > 25 µM | MDA-MB-435 11.1 µM | UACC-257 15.6 µM | OVCAR-5 > 25 µM | MDA-N 6.9 µM | SK-MEL-5 19.1 µM | ACHN 6.73 µM | RXF 393 13.3 µM | HT-29 11.2 µM | TK-10 > 25 µM | Hs-578T > 25 µM | UACC-62 7.93 µM | SN12C 5.47 µM | SW-620 > 25 µM | CCRF-CEM 8.13 µM | HOP-92 > 25 µM | U-251 > 25 µM

Cc1cc(C23OC4COC(C)(C)OC4C2OC(C)(C)O3)nc2ccccc12 (configuration not stated)
inactive: EKVX > 100 µM | NCI/ADR-RES > 100 µM | K562 44.1 µM | MDA-MB-435 > 100 µM | UACC-257 > 100 µM | OVCAR-5 > 100 µM | MDA-N > 100 µM | SK-MEL-5 > 100 µM | ACHN > 100 µM | RXF 393 > 100 µM | HT-29 76.6 µM | TK-10 > 100 µM | Hs-578T 82.2 µM | UACC-62 > 100 µM | SN12C > 100 µM | SW-620 > 100 µM | CCRF-CEM 32.1 µM | HOP-92 > 100 µM | U-251 > 100 µM

C/C(=C\COP(=O)(O)OP(=O)(O)O)CCCCCCOCc1ccccc1
inactive: EKVX > 100 µM | NCI/ADR-RES > 100 µM | K562 > 100 µM | MDA-MB-435 > 100 µM | UACC-257 > 100 µM | OVCAR-5 > 100 µM | SK-MEL-5 > 100 µM | BT-549 > 100 µM | ACHN > 100 µM | RXF 393 > 100 µM | HT-29 > 100 µM | TK-10 > 100 µM | Hs-578T > 100 µM | UACC-62 > 100 µM | SN12C > 100 µM | SW-620 > 100 µM | CCRF-CEM > 100 µM | HOP-92 > 100 µM | U-251 > 100 µM

Nc1ccc2nc(-c3cccc(C(F)(F)F)c3)cc(O)c2c1
inactive: EKVX 44.7 µM | NCI/ADR-RES 92.9 µM | MDA-MB-435 20.3 µM | UACC-257 51.2 µM | OVCAR-5 43.2 µM | SK-MEL-5 22.9 µM | BT-549 23.6 µM | ACHN 80.2 µM | HT-29 34.1 µM | TK-10 58.2 µM | Hs-578T 28.9 µM | UACC-62 53.2 µM | SN12C 61.8 µM | SW-620 62.1 µM | CCRF-CEM 28.8 µM | HOP-92 > 100 µM | U-251 49.3 µM

c1cc(C2=NCCO2)c2ccsc2c1
inactive: EKVX > 100 µM | NCI/ADR-RES > 100 µM | K562 > 100 µM | MDA-MB-435 > 100 µM | UACC-257 > 100 µM | OVCAR-5 > 100 µM | MDA-N > 100 µM | SK-MEL-5 > 100 µM | ACHN > 100 µM | RXF 393 > 100 µM | HT-29 > 100 µM | TK-10 > 100 µM | Hs-578T 22.7 µM | UACC-62 > 100 µM | SN12C > 100 µM | SW-620 > 100 µM | CCRF-CEM > 100 µM | HOP-92 41.2 µM | U-251 > 100 µM

C[N+](C)=C/C=C(\Cl)c1ccc2ccccc2c1
inactive: EKVX 24.5 µM | NCI/ADR-RES 6.87 µM | K562 5.04 µM | MDA-MB-435 16.7 µM | UACC-257 12.2 µM | OVCAR-5 19.9 µM | SK-MEL-5 18.1 µM | BT-549 17.7 µM | ACHN 14 µM | RXF 393 16.5 µM | HT-29 7.64 µM | TK-10 16.3 µM | Hs-578T 32.4 µM | UACC-62 15.1 µM | SN12C 19.1 µM | SW-620 4.29 µM | CCRF-CEM 1.66 µM | HOP-92 21 µM | U-251 11.4 µM

Cc1cc([N+](=O)[O-])c(S(=O)(=O)c2ccccc2)c([N+](=O)[O-])c1
inactive: EKVX 24.2 µM | K562 4.08 µM | UACC-257 3.52 µM | OVCAR-5 18.6 µM | SK-MEL-5 14.2 µM | ACHN 16.5 µM | RXF 393 2.2 µM | HT-29 7.85 µM | TK-10 17.9 µM | UACC-62 7.69 µM | SN12C 4.43 µM | SW-620 3.95 µM | CCRF-CEM 3.52 µM | HOP-92 2.43 µM | U-251 13.5 µM

Nc1nc(Nc2ccccc2)c2[nH]cnc2n1
inactive: EKVX > 100 µM | NCI/ADR-RES > 100 µM | K562 62.5 µM | MDA-MB-435 > 100 µM | UACC-257 > 100 µM | MDA-N 47.8 µM | SK-MEL-5 86.5 µM | ACHN 41.9 µM | RXF 393 > 100 µM | HT-29 63.7 µM | TK-10 46.9 µM | UACC-62 33.3 µM | SN12C > 100 µM | SW-620 > 100 µM | CCRF-CEM 50.7 µM | HOP-92 32.2 µM | U-251 > 100 µM

COc1cccc(Nc2nc(-c3cccs3)nc3cc(OC)c(OC)cc23)c1
inactive: EKVX 35.8 µM | NCI/ADR-RES 24.3 µM | K562 37.1 µM | MDA-MB-435 31.3 µM | UACC-257 36.8 µM | OVCAR-5 31.9 µM | SK-MEL-5 25.4 µM | BT-549 25.9 µM | ACHN 21.6 µM | HT-29 24.8 µM | TK-10 33.4 µM | Hs-578T 27.4 µM | UACC-62 19.1 µM | SN12C 21.3 µM | SW-620 29 µM | HOP-92 25 µM | U-251 23.8 µM

O=C(O)CSc1nnc(-c2ccco2)[nH]1
inactive: EKVX > 100 µM | K562 > 100 µM | UACC-257 > 100 µM | OVCAR-5 > 100 µM | SK-MEL-5 > 100 µM | ACHN > 100 µM | RXF 393 > 100 µM | HT-29 > 100 µM | TK-10 > 100 µM | UACC-62 > 100 µM | SN12C > 100 µM | SW-620 > 100 µM | CCRF-CEM > 100 µM | HOP-92 > 100 µM | U-251 > 100 µM

Cc1ccc2c(c1)-c1c(C#N)c(N)nc(-c3ccccc3)c1CCS2(=O)=O
inactive: EKVX 18.7 µM | NCI/ADR-RES 5.26 µM | K562 1.97 µM | MDA-MB-435 1.72 µM | UACC-257 6.31 µM | OVCAR-5 10.1 µM | SK-MEL-5 3.03 µM | BT-549 12.1 µM | ACHN 8.53 µM | HT-29 3.78 µM | TK-10 > 100 µM | Hs-578T 5.98 µM | UACC-62 3.84 µM | SN12C 17.7 µM | SW-620 5.6 µM | CCRF-CEM 1.23 µM | HOP-92 56.5 µM | U-251 8.22 µM

COCc1cc2c(cc1/C=C/[N+](=O)[O-])OCO2
inactive: EKVX 17.8 µM | NCI/ADR-RES 25.2 µM | K562 > 100 µM | MDA-MB-435 18.3 µM | UACC-257 16.8 µM | OVCAR-5 16.4 µM | MDA-N 17.7 µM | SK-MEL-5 19.4 µM | ACHN 17.1 µM | RXF 393 18 µM | HT-29 18.5 µM | TK-10 16.9 µM | Hs-578T 19.5 µM | UACC-62 17.9 µM | SN12C 18.5 µM | SW-620 17.7 µM | CCRF-CEM 1.62 µM | HOP-92 18.8 µM | U-251 17.7 µM

COc1ccc(Cc2c(-c3ccc(C)cc3)n[nH]c(=O)c2C2C(=O)N(c3ccccc3)N=C2c2ccccc2)cc1 (configuration not stated)
inactive: EKVX 26.8 µM | NCI/ADR-RES 25.1 µM | K562 28 µM | MDA-MB-435 20.3 µM | UACC-257 29.3 µM | OVCAR-5 33 µM | MDA-N 24.4 µM | SK-MEL-5 20.7 µM | ACHN 30.9 µM | RXF 393 26.7 µM | HT-29 31.7 µM | TK-10 29.2 µM | Hs-578T 31.6 µM | UACC-62 20 µM | SN12C 30.9 µM | SW-620 37.7 µM | CCRF-CEM 32.2 µM | HOP-92 28 µM | U-251 34.8 µM

CC(=O)CCC(=O)CC(O)(C(F)(F)F)C(F)(F)F
inactive: EKVX > 10 µM | NCI/ADR-RES 25.3 µM | K562 15.3 µM | MDA-MB-435 19.4 µM | UACC-257 17.8 µM | OVCAR-5 12.9 µM | SK-MEL-5 18.1 µM | ACHN 24.8 µM | RXF 393 18.6 µM | HT-29 17.8 µM | TK-10 22.6 µM | Hs-578T 14.6 µM | UACC-62 16.8 µM | SN12C 20.9 µM | SW-620 21.6 µM | CCRF-CEM 21.6 µM | HOP-92 13.6 µM | U-251 17.2 µM
